These results are taken from ChEMBL document CHEMBL1127278, “N-chloromethyl quinuclidinium derivatives: A new class of irreversible ligands for 5-HT3 receptors” (Bioorg Med Chem Lett, 1994).

Broadly, the Ki is the dissociation constant of the complex between target and ligand, obtained from inhibition or displacement.

In the assay the target is T1, Serotonin 3 (5-HT3) receptor (Rattus norvegicus, UniProt P35563+Q9JJ16).
T1 sequence (P35563 whole entry): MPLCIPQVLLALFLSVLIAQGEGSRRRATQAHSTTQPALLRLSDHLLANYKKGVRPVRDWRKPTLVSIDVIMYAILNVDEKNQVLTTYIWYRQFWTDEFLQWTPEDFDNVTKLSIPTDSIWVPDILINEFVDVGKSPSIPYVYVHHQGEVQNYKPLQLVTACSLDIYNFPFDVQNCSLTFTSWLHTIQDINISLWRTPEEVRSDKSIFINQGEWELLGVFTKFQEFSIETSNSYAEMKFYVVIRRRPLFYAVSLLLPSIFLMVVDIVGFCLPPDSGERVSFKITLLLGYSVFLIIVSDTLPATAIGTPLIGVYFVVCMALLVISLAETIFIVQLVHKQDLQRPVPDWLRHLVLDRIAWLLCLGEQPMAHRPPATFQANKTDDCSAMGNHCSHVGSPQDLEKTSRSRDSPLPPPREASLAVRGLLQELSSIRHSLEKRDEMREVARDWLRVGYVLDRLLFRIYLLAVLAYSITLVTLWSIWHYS
T1 sequence (Q9JJ16 whole entry): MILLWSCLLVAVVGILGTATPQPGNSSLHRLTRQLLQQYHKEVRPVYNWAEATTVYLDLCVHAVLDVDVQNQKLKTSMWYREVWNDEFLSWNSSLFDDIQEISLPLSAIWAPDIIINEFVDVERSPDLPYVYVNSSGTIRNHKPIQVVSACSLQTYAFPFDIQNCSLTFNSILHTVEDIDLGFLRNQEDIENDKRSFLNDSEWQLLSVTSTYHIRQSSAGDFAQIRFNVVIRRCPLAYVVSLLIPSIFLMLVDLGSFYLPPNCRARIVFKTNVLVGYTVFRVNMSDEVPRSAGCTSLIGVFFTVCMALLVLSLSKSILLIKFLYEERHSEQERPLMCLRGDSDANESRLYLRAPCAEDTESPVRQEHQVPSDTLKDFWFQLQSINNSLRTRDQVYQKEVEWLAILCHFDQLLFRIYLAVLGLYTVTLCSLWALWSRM
As to the kind of experiment: Binding affinity to 5-hydroxytryptamine 3 receptor in rat entorhinal cortex using [3H]-BRL 43694 as radioligand.

The structures appear in SMILES notation.

On to `Nc1ccc2c3c(cccc13)C(=O)N([C@@H]1C[N+]3(CCl)CCC1CC3)C2=O`, for which the Ki is 328 nM.
Consider `COc1cc(N)c(Cl)cc1C(=O)N[C@@H]1C[N+]2(CCl)CCC1CC2`, for which the affinity corresponds to a Ki of 14.8 nM.
Compound `Nc1ccc2c3c(cccc13)C(=O)N([C@H]1C[N+]3(CCl)CCC1CC3)C2=O` displayed a Ki of 0.35 nM. Compared with the last compound, the Ki is about 42-fold lower.
The compound `COc1cc(N)c(Cl)cc1C(=O)N[C@H]1C[N+]2(CCl)CCC1CC2` registered a Ki of 20.1 nM.
